Measured values taken from patent US20110059043A1, “CHEMICAL COMPOUNDS” (priority 2009, published 2011).

Key:
[1] = target: T1, Recombinant HCV polymerase (BK strain) (Hepatitis C virus genotype 1b, UniProt P26663); assay: HCV polymerase enzyme assay (radiometric [33P]-UTP incorporation); assay type: biochemical, HCV 1b
T1 construct: Recombinant HCV polymerase (BK strain) was expressed and purified from E. coli with a 21 amino acid C-terminal deletion; His6; made in house; host or cells: E. coli
Method in brief: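 His6-tagged BK-strain NS5B lacking 21 C-terminal residues, expressed in E. coli, at 100 nM in Tris pH 7.5 with 5 mM MgCl2 and 3% DMSO. Substrates: 125 nM biotin-U13:0.63 μg/ml PolyA, 200 nM UTP plus [33P]-UTP; 100 min at 25° C. Incorporation read by streptavidin capture; IC50 from 8-point curve.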

[2] = system: HCV replicon cells Huh 9B; assay: HCV replicon assay (luciferase); assay type: cell-based; settings: Hepatitis C virus, reduction of replicon level by 50% vs untreated cell control, 72 h
[3] = system: HCV replicon cells Huh 9B; assay type: cell-based; settings: concentration reducing total cell area by 50% relative to DMSO controls; 72 h
Method in brief: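 Huh 9B replicon cells (luciferase-ubiquitin-neomycin fusion, EMCV-IRES-driven HCV polyprotein with adaptive mutations) were seeded from a 100,000 cells/ml suspension in G418-free medium, grown 24 h, then exposed to compound (dilutions at 1% DMSO) for 72 h at 37 °C. For toxicity, methylene blue staining was read at 620 nm and TD50 derived relative to DMSO controls.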

T1 sequence (P26663 2420-2989): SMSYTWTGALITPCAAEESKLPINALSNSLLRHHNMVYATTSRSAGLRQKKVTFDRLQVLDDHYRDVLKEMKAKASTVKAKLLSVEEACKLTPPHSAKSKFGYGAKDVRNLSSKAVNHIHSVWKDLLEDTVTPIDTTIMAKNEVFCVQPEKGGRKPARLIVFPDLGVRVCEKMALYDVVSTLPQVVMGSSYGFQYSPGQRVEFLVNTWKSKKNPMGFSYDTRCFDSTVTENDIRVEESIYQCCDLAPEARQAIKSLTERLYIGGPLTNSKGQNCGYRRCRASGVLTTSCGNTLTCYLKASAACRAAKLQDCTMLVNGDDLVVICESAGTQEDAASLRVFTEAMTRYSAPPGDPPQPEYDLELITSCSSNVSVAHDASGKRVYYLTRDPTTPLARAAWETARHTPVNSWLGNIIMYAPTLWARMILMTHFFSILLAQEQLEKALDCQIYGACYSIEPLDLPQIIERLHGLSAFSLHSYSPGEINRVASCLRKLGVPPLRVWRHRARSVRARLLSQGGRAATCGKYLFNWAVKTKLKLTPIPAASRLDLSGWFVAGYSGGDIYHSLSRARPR

Row | Structure (SMILES) | IC50 [1] [nM] | IC50 [2] [nM] | Replicon Assay Value TD50 [3] [µM]
1 | CCOCCOc1ncc(F)cc1C(=O)N[C@@H]1N=C(c2c(Cl)cc(Cl)cc2Cl)c2ccccc2NC1=O [Example 66, (R)-2-(2-Ethoxyethoxy)-5-fluoro-N-(2-oxo-5-(2,4,6-trichlorophenyl)-2,3-dihydro-1H-benzo[e][1,4]diazepin-3-yl)nicotinamide] | 2220 | 163 | 16.686
2 | COCCOc1ccc(F)cc1C(=O)NC1N=C(c2c(Cl)cccc2Cl)c2ccccc2NC1=O (stereo not drawn) [Example 48, N-(5-(2,6-Dichlorophenyl)-2-oxo-2,3-dihydro-1H-benzo[e][1,4]diazepin-3-yl)-5-fluoro-2-(2-methoxyethoxy)benzamide] | 155 | 703 | >25
3 | COCCOc1ncc(F)cc1C(=O)N[C@H]1N=C(c2c(Cl)cc(Cl)cc2Cl)c2ccccc2NC1=O [Example 63, (S)-5-Fluoro-2-(2-methoxyethoxy)-N-(2-oxo-5-(2,4,6-trichlorophenyl)-2,3-dihydro-1H-benzo[e][1,4]diazepin-3-yl)nicotinamide] | 50.5 | 9.7 | 17.386
4 | CCC(=O)NCCCOc1ccc(Cl)cc1C(=O)NC1N=C(c2c(Cl)cc(Cl)cc2Cl)c2ccccc2NC1=O (stereo not drawn) [Example 26, 5-Chloro-N-(2-oxo-5-(2,4,6-trichlorophenyl)-2,3-dihydro-1H-benzo[e][1,4]diazepin-3-yl)-2-(3-propionamidopropoxy)benzamide] | 647 | 1620 | 12.354
